Tests used:
Test in all cases: relative viability (nuclei count vs DMSO), 5 days (fraction); higher = more cells survive
[1] = compound: CC1=NN=C(O1)C2=NN=C(C=C2)N3CCC(CC3)OC4=C(C=CC(=C4)F)Cl + Nc1ncn([C@H]2C[C@H](O)[C@@H](CO)O2)c(=O)n1 [Decitabine] (partner 2 µM)
In short: (§1)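 Nuclei were stained with Hoechst during a one-step fixation (final 0.05% Triton X-100, 1% formaldehyde, 1 ug/ml Hoechst) carried out 5 days after dosing, then counted on 4× images. The cells, lung cancer lines in 1536-well plates, had been dosed by pin tool the day after seeding with one drug alone or a fixed anchor-drug dose plus five library-drug doses (not always all listed) in √10 steps. Relative viability is the nuclei count in treated wells divided by that in vehicle wells, and each value is the median of duplicate plates.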

[2] = compound: CC(C)C[C@@H](C(=O)N[C@H](C(=O)OC1CCCC1)c1ccccc1)[C@H](O)C(=O)NO [Tosedostat] + CS(=O)(=O)CCNCc1ccc(-c2ccc3ncnc(Nc4ccc(OCc5cccc(F)c5)c(Cl)c4)c3c2)o1 [Lapatinib] (partner 2 µM)
In short: as §1

[3] = compound: CC1=NN=C(O1)C2=NN=C(C=C2)N3CCC(CC3)OC4=C(C=CC(=C4)F)Cl + Cc1cc(Nc2cc(N3CCN(C)CC3)nc(Sc3ccc(NC(=O)C4CC4)cc3)n2)n[nH]1 [Tozasertib] (partner 0.1 µM)
In short: as §1

[4] = compound: CC(C)C[C@@H](C(=O)N[C@H](C(=O)OC1CCCC1)c1ccccc1)[C@H](O)C(=O)NO [Tosedostat] + O=C(c1cc(Cc2n[nH]c(=O)c3ccccc23)ccc1F)N1CCN(C(=O)C2CC2)CC1 [Olaparib] (partner 8 µM)
In short: as §1

Cell Line	relative viability ([1]; first compound 0.253 µM)	relative viability ([1]; first compound 0.8 µM)	relative viability ([1]; first compound 2.53 µM)	relative viability ([1]; first compound 8 µM)	relative viability ([2]; first compound 0.02 µM)	relative viability ([2]; first compound 0.06325 µM)	relative viability ([2]; first compound 0.2 µM)	relative viability ([2]; first compound 0.6325 µM)	relative viability ([2]; first compound 2 µM)	relative viability ([3]; first compound 0.253 µM)	relative viability ([3]; first compound 0.8 µM)	relative viability ([3]; first compound 2.53 µM)	relative viability ([3]; first compound 8 µM)	relative viability ([4]; first compound 0.02 µM)	relative viability ([4]; first compound 0.06325 µM)	relative viability ([4]; first compound 0.2 µM)	relative viability ([4]; first compound 0.6325 µM)	relative viability ([4]; first compound 2 µM)
201T	0.459	0.647	0.445	0.43	1.05	1.06	1.06	1.09	1.13	0.421	0.432	0.427	0.421	0.824	0.913	0.874	0.896	0.862
A549	0.223	0.218	0.222	0.208	1	1.07	0.957	0.925	0.939	–	–	–	–	0.42	0.247	0.359	0.26	0.306
A-427	0.55	0.576	0.53	0.569	1.13	1.1	1.01	1.02	0.995	0.23	–	0.168	0.168	0.763	0.674	0.708	0.757	0.747
ABC-1	0.49	0.539	0.406	0.423	1.34	1.12	1.2	1.19	1.23	0.17	0.193	0.178	0.177	0.842	0.784	0.843	0.848	0.491
BEN	0.75	0.775	0.713	0.668	0.924	0.936	0.68	0.987	0.702	0.505	0.423	0.454	0.46	1.11	0.952	1.31	1.09	1.02
CAL-12T	–	–	–	–	0.545	0.7	0.728	0.669	0.678	0.26	0.241	0.227	0.216	0.769	0.658	0.588	0.59	0.549
COR-L23	0.383	0.409	0.396	0.409	1.03	0.946	0.918	0.817	0.99	0.166	0.131	0.145	0.121	0.471	0.295	0.291	0.269	0.268
COR-L 105	0.676	0.592	0.667	0.638	0.415	0.412	0.326	0.416	0.358	0.328	0.375	0.365	0.427	0.771	0.636	0.695	0.507	0.591
Calu-6	–	–	–	–	1.33	1.04	0.951	0.899	0.864	–	–	–	–	0.631	0.494	0.5	0.439	0.326
ChaGo-K-1	0.392	0.465	0.391	0.374	–	–	–	–	–	0.258	0.226	0.226	0.214	0.459	0.399	0.44	0.377	0.325
EBC-1	–	–	–	–	0.241	0.245	0.195	0.22	0.17	–	–	–	–	0.661	0.637	0.546	0.442	0.409
EKVX	0.292	0.261	0.309	0.225	0.19	0.233	0.418	0.218	0.227	0.258	0.15	0.196	0.196	0.754	0.834	0.818	0.576	0.721
EMC-BAC-2	0.903	0.837	0.957	0.794	0.894	0.888	0.894	0.853	0.955	0.314	0.274	0.283	0.284	0.517	0.41	0.459	0.428	0.378
EPLC-272H	0.361	0.366	0.4	0.374	1.03	0.944	0.637	0.755	0.621	0.36	0.228	0.184	0.158	0.879	0.711	0.557	0.471	0.293
H3255	0.484	0.525	0.464	0.564	0.262	0.227	0.224	0.255	0.253	0.619	0.489	0.589	0.542	0.596	0.532	0.545	0.525	0.497
HARA	0.414	0.384	0.357	0.319	0.756	0.797	0.611	0.775	0.574	0.0993	0.0831	0.0894	0.0804	0.762	0.853	0.779	0.519	0.662
HCC-15	0.497	0.5	0.493	0.457	0.949	0.882	0.748	0.746	0.708	0.281	0.29	0.274	0.278	0.799	0.723	0.62	0.495	0.44
HCC-44	0.44	0.413	0.436	0.425	1.04	0.994	0.94	0.937	0.678	0.545	0.564	0.513	0.487	0.965	0.984	0.97	0.949	0.916

Cell Line	relative viability ([1]; first compound 0.253 µM)	relative viability ([1]; first compound 0.8 µM)	relative viability ([1]; first compound 2.53 µM)	relative viability ([1]; first compound 8 µM)	relative viability ([2]; first compound 0.02 µM)	relative viability ([2]; first compound 0.06325 µM)	relative viability ([2]; first compound 0.2 µM)	relative viability ([2]; first compound 0.6325 µM)	relative viability ([2]; first compound 2 µM)	relative viability ([3]; first compound 0.253 µM)	relative viability ([3]; first compound 0.8 µM)	relative viability ([3]; first compound 2.53 µM)	relative viability ([3]; first compound 8 µM)	relative viability ([4]; first compound 0.02 µM)	relative viability ([4]; first compound 0.06325 µM)	relative viability ([4]; first compound 0.2 µM)	relative viability ([4]; first compound 0.6325 µM)	relative viability ([4]; first compound 2 µM)
HCC-78	0.491	0.43	0.397	0.509	0.647	0.764	0.684	0.841	0.746	0.376	0.319	0.266	0.288	0.683	0.796	0.766	0.754	0.75
HCC-366	0.242	0.207	0.292	0.252	1.12	0.954	1	0.993	0.997	0.076	0.0654	0.0544	0.0419	0.361	0.334	0.385	0.32	0.33
HCC-827	0.342	0.298	0.183	0.282	0.185	0.196	0.203	0.189	0.159	0.174	0.161	0.171	0.144	0.543	0.526	0.602	0.317	0.506
HOP-62	0.189	0.184	0.19	0.18	1.08	0.935	1.08	0.891	0.983	0.296	0.288	0.205	0.222	0.638	0.346	0.321	0.245	0.363
IA-LM	–	–	–	–	0.885	0.925	0.61	0.746	0.645	–	–	–	–	0.839	0.869	0.655	0.814	0.662
LC-2-ad	0.335	0.314	0.381	0.348	1.02	0.981	0.993	0.909	1.04	0.38	0.354	0.359	0.344	0.774	0.707	0.714	0.638	0.695
LCLC-103H	0.491	0.694	0.552	0.435	–	–	–	–	–	0.411	0.362	0.356	0.324	0.763	0.773	0.777	0.816	0.772
NCI-H441	0.221	0.227	0.259	0.254	–	–	–	–	–	0.457	0.388	0.423	0.419	0.711	0.533	0.364	0.384	0.322
NCI-H522	0.629	0.624	0.573	0.65	–	–	–	–	–	0.576	0.578	0.558	0.534	0.637	0.644	0.658	0.788	0.637
NCI-H1299	–	–	–	–	1.02	0.954	0.96	0.951	0.892	–	–	–	–	1.04	0.947	0.954	0.864	0.835
NCI-H1563	–	–	–	–	1.03	1.03	0.957	0.956	1.05	–	–	–	–	–	–	–	–	–
NCI-H1623	–	–	–	–	–	–	–	–	–	0.322	0.435	0.372	0.385	–	–	–	–	–
NCI-H1648	0.378	0.465	0.433	0.473	–	–	–	–	–	0.242	0.325	0.293	0.344	0.799	0.644	0.764	0.875	0.587
NCI-H1703	–	–	–	–	1.35	1	1.02	0.743	0.943	–	–	–	–	0.45	0.373	0.293	0.29	0.311
NCI-H1792	0.396	0.507	0.558	0.442	0.988	1.04	0.878	0.863	0.823	–	–	–	–	0.481	0.425	0.386	0.317	0.432
NCI-H2228	–	–	–	–	1.11	0.991	0.822	0.784	0.533	0.214	0.198	0.212	0.207	0.735	0.56	0.518	0.598	0.272
NCI-H2342	0.579	0.552	0.528	0.5	–	–	–	–	–	0.356	0.411	0.417	0.404	0.401	0.392	0.444	0.295	0.373
SW 900	–	0.467	0.395	0.426	–	–	–	–	–	–	–	0.415	0.477	0.784	1.02	0.983	0.752	0.629
